Measurements reported in patent US10597388B2, “Pyridazinone herbicides” (FMC CORPORATION, priority 2014, dated 2020).

How the values were obtained:
Experiment in all cases: Test D controlled growth environment herbicide test, pre- and postemergence
Format in all cases: in vivo
[1] = test system: blackgrass (Alopecurus myosuroides)
How it was run: (§1)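 Pre-emergence: seeds sown in silt loam soil were sprayed with compound in a non-phytotoxic solvent mix containing surfactant. Post-emergence: plants at 2 to 18 cm (1- to 4-leaf stage) in peat moss/vermiculite medium got the same formulation. Visual 0–100 rating versus controls after 14 to 21 d.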

[2] = test system: kochia (Kochia scoparia)
How it was run: as §1

[3] = test system: galium (catchweed bedstraw, Galium aparine)
How it was run: as §1

[4] = test system: chamomile (scentless chamomile, Matricaria inodora)
How it was run: as §1

[5] = test system: field violet (Viola arvensis)
How it was run: as §1

[6] = test system: bromegrass, downy (downy bromegrass, Bromus tectorum)
How it was run: as §1

[7] = test system: buckwheat, wild (wild buckwheat, Polygonum convolvulus)
How it was run: as §1

[8] = test system: speedwell (bird's-eye speedwell, Veronica persica)
How it was run: as §1

[9] = test system: lambsquarters (Chenopodium album)
How it was run: as §1

[10] = test system: oat, wild (wild oat, Avena fatua)
How it was run: as §1

[11] = test system: pigweed (Amaranthus retroflexus)
How it was run: as §1

[12] = test system: oilseed rape (Brassica napus)
How it was run: as §1

[13] = Postemergence, 31 g ai/ha, scale 0 to 100 (0 no effect, 100 complete control)
[14] = Postemergence, 125 g ai/ha, visual rating on scale 0 (no effect) to 100 (complete control), 14 to 21 d
[15] = Postemergence, 250 g ai/ha, scale 0 to 100 (0 no effect, 100 complete control)
[16] = Preemergence, 62 g ai/ha, scale 0 to 100 (0 no effect, 100 complete control)
[17] = Preemergence, 125 g ai/ha, scale 0 to 100 (0 no effect, 100 complete control)
[18] = Preemergence, 250 g ai/ha, scale 0 to 100 (0 no effect, 100 complete control)
[19] = postemergence, 62 g ai/ha, scale 0 to 100, 0 no effect, 100 complete control

Cc1ccc2sc(C)c(-c3c(O)c(C)nn(C)c3=O)c2c1 [Compound 1, 4-(2,5-dimethylbenzo[b]thien-3-yl)-5-hydroxy-2,6-dimethyl-3(2H)-pyridazinone]
35: Plant response rating (scale of 0 to 100), Blackgrass ([1]; Preemergence, 31 g ai/ha) | Plant response rating, Kochia [2, 17] | Plant response rating, Oilseed Rape [12, 14]
50: Plant response rating, Blackgrass [1, 19] | Plant response rating, Speedwell [8, 16]
100: Plant response rating, Kochia [2, 15] | Plant response rating, Galium [3, 15] | Plant response rating, Galium [3, 17] | Plant response rating, Galium [3, 18] | Plant response rating, Chamomile [4, 15] | Plant response rating, Field Violet [5, 16] | Plant response rating, Field Violet [5, 17] | Plant response rating, Field Violet [5, 18] | Plant response rating, Buckwheat, Wild [7, 14] | Plant response rating, Buckwheat, Wild [7, 15] | Plant response rating, Buckwheat, Wild [7, 18] | Plant response rating, Lambsquarters [9, 15] | Plant response rating, Lambsquarters [9, 16] | Plant response rating, Lambsquarters [9, 17] | Plant response rating, Lambsquarters [9, 18] | Plant response rating, Oat, Wild [10, 18] | Plant response rating, Pigweed [11, 14] | Plant response rating, Pigweed [11, 15] | Plant response rating, Pigweed [11, 16] | Plant response rating, Pigweed [11, 17] | Plant response rating, Pigweed [11, 18]
90: Blackgrass plant response rating [1, 18] | Plant response rating, Galium [3, 19] | Plant response rating, Chamomile [4, 18] | Plant response rating, Field Violet [5, 14] | Plant response rating, Lambsquarters [9, 14] | Plant response rating, Lambsquarters [9, 19] | Plant response rating, Pigweed [11, 19]
95: Plant response rating, Kochia [2, 14] | Plant response rating, Galium [3, 14] | Plant response rating, Galium [3, 16] | Plant response rating (scale of 0 to 100), Chamomile ([4]; Preemergence, 31 g ai/ha) | Plant response rating, Chamomile [4, 16] | Plant response rating, Chamomile [4, 17] | Plant response rating, Field Violet [5, 15] | Plant response rating (scale of 0 to 100), Field Violet ([5]; Preemergence, 31 g ai/ha) | Plant response rating, Speedwell [8, 18] | Plant response rating, Oat, Wild [10, 15] | Plant response rating, Oat, Wild [10, 17]
75: Plant response rating, Kochia [2, 18] | Plant response rating (scale of 0 to 100), Galium ([3]; Preemergence, 31 g ai/ha) | Plant response rating, Chamomile [4, 19] | Plant response rating, Field Violet [5, 19] | Plant response rating, Buckwheat, Wild [7, 19] | Lambsquarters plant response rating [9, 13] | Plant response rating (scale of 0 to 100), Oat, Wild ([10]; Preemergence, 31 g ai/ha)
70: Plant response rating, Blackgrass [1, 14] | Plant response rating, Blackgrass [1, 16] | Kochia plant response rating [2, 13] | Plant response rating, Bromegrass, Downy [6, 17] | Plant response rating, Bromegrass, Downy [6, 18] | Buckwheat, Wild plant response rating [7, 13] | Plant response rating, Speedwell [8, 15] | Plant response rating (scale of 0 to 100), Speedwell ([8]; Preemergence, 31 g ai/ha) | Plant response rating, Oat, Wild [10, 16] | Plant response rating, Oat, Wild [10, 19] | Plant response rating (scale of 0 to 100), Pigweed ([11]; Preemergence, 31 g ai/ha)
5: Plant response rating (scale of 0 to 100), Buckwheat, Wild ([7]; Preemergence, 31 g ai/ha) | Plant response rating, Oilseed Rape [12, 17]
60: Plant response rating, Speedwell [8, 14] | Plant response rating, Oilseed Rape [12, 15]
25: Plant response rating, Bromegrass, Downy [6, 16] | Speedwell plant response rating [8, 13]
85: Plant response rating, Blackgrass [1, 17] | Plant response rating, Kochia [2, 19] | Plant response rating, Chamomile [4, 14] | Field Violet plant response rating [5, 13]
80: Plant response rating, Blackgrass [1, 15] | Galium plant response rating [3, 13] | Plant response rating, Oat, Wild [10, 14] | Pigweed plant response rating [11, 13]
15: Plant response rating, Oilseed Rape [12, 19]
20: Plant response rating, Bromegrass, Downy [6, 15] | Plant response rating (scale of 0 to 100), Bromegrass, Downy ([6]; Preemergence, 31 g ai/ha) | Plant response rating (scale of 0 to 100), Lambsquarters ([9]; Preemergence, 31 g ai/ha) | Plant response rating, Oilseed Rape [12, 18]
10: Plant response rating, Bromegrass, Downy [6, 14] | Plant response rating, Bromegrass, Downy [6, 19] | Plant response rating, Buckwheat, Wild [7, 16]
65: Chamomile plant response rating [4, 13] | Plant response rating, Buckwheat, Wild [7, 17]
0: Plant response rating (scale of 0 to 100), Kochia ([2]; Preemergence, 31 g ai/ha) | Plant response rating, Kochia [2, 16] | Bromegrass, Downy plant response rating [6, 13] | Oilseed Rape plant response rating [12, 13] | Plant response rating (scale of 0 to 100), Oilseed Rape ([12]; Preemergence, 31 g ai/ha) | Plant response rating, Oilseed Rape [12, 16]
55: Plant response rating, Speedwell [8, 19]
40: Blackgrass plant response rating [1, 13] | Oat, Wild plant response rating [10, 13]
